From patent US8927577B2, “Quinolinyl glucagon receptor modulators” (Pfizer Inc., priority 2011, dated 2015)
Counter-ions that a name gives are not always drawn.

How the values were obtained:
human glucagon receptor [1] = target: T1, human glucagon receptor (Homo sapiens (Human), UniProt P47871); assay: Human Glucagon SPA Assay; conditions: membrane from chem-1 cells stably transfected with the human glucagon receptor; 125 pM [125I]Glucagon-Cex; Ki by Cheng-Prusoff equation; read-out: Binding Ki
T1 sequence (P47871 26-477): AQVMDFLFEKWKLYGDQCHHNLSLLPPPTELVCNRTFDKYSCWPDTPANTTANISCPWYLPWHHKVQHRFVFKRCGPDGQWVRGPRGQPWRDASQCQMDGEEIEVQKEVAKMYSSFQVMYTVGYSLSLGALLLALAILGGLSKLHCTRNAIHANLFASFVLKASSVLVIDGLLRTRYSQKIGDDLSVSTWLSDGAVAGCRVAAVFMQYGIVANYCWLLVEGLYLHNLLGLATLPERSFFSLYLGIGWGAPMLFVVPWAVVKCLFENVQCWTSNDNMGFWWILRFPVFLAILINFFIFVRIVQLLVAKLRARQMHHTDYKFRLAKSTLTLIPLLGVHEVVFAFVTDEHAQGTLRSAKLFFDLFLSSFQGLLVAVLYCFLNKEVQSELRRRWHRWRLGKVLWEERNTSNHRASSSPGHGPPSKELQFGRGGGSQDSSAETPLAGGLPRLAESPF
Procedure: The Glucagon SPA assay is used to determine the ability of test compounds to block the binding of glucagon-cex to the glucagon receptor. Test compounds are re-suspended and serially diluted in 100% DMSO. 1 ul of test compound at the desired concentrations is spotted into the appropriate wells of 96 well low binding white clear bottom plate (Corning). 1 ul of DMSO is spotted into total binding wells. 1 ul of a known glucagon antagonist at a concentration of 20 uM is added to non specific binding wells. […] All assay ingredients with the exception of test compounds are re-suspended in the following buffer; 50 mM Hepes pH 7.4; 5 mM MgCl2; 1 mM CaCl; 5% glycerol and 0.2% BSA. Following a 6-10 hr incubation at room temperature the amount of hot ligand bound to the cell membranes is determined by reading the plates on a Wallac Trilux radioactive emission detector. Data is analyzed using Pfizer's Data analysis program. IC50 values are then determined from the generated sigmoidal dose response curves. Ki values are calculated using Cheng-Prusoff equation.

human glucagon receptor [2] = target: T1, human glucagon receptor; assay: Glucagon cAMP Assay; type: cell-based; conditions: CHOK1 cells stably transfected with the human glucagon receptor; 100 pM glucagon challenge; Kb from IC50 by modified Cheng-Prusoff equation
Procedure: The Cisbio cAMP detection assay is used to determine the ability of punitive glucagon antagonist to block glucagon induced cAMP production. Potential glucagon antagonists are re-suspended and diluted in 100% DMSO. Prior to use in the Glucagon cAMP assay 100×DMSO compound stocks are diluted 20× with DMEM-F12 media (Invitogen) containing either 0.1% or 4% BSA. 2 uls of 5× compound stocks are spotted into the appropriate wells of low binding white solid bottom 384 well plates (Corning). 2 uls of 5% DMSO or known glucagon antagonist are added to each plate to define the assay window. CHOK1 cells stably transfected with the human glucagon receptor are removed from culture flasks with cell dissociation buffer. Cell pellets are re-suspended, at a concentration of 8.3e^5 cells/ml in DMEM-F12 with or without 4% BSA and 200 uM IBMX. 6 uls of cell suspensions are added to the assay plates. Plates are incubated for 20 min at room temperature prior to the addition of a 100 pM challenge dose of glucagon. On a separate plate glucagon dose response curves are run to determine the EC50 of glucagon. After a 30 min room temperature incubation the reaction is terminated by the addition of lysis buffer containing the cAMP detection reagents. Plates are incubated for an additional 60 min at room temperature prior to being read on the Perkin Elmer fluorescent plate reader. Raw is converted to nM of cAMP produced based on a cAMP standard curve. Converted data is then analyzed using the Pfizer data analysis program. IC50 values are determined from the generated sigmoidal dose response curves. Kb values are the calculated using a modified Cheng-Prusoff equation.

| Structure (SMILES) | Ki (human glucagon receptor [1]) | Kb (human glucagon receptor [2]) |
| --- | --- | --- |
| CC(C)CC(Nc1cnc2ccccc2c1)c1ccc(C(=O)NCCC(=O)O)cc1 (racemic) [Example 3, (+/−)3-{4-[3-methyl-1-(quinolin-3-ylamino)-butyl]-benzoylamino}-propionic acid] | 240 nM | 270 nM |
| CC(C)CC(Nc1ncc2ccc(F)cc2n1)c1ccc(C(=O)NCCC(=O)O)cc1 (racemic) [Example 4, (+/−)-3-{4-[1-(7-fluoro-quinazolin-2-ylamino)-3-methyl-butyl]-benzoylamino}-propionic acid] | 7360 nM | 5100 nM |
| CC(C)CC(Nc1cnc2ccccc2n1)c1ccc(C(=O)NCCC(=O)O)cc1 (racemic) [Example 7, (+/−)-3-{4-[3-methyl-1-(quinoxalin-2-ylamino)-butyl]-benzoylamino}-propionic acid] |  | 1000 nM |
| Cc1nc2ccccc2nc1NC(CC(C)C)c1ccc(C(=O)NCCC(=O)O)cc1 (racemic) [Example 8, (+/−)-3-{4-[3-methyl-1-(3-methyl-quinoxalin-2-ylamino)-butyl]-benzoylamino}-propionic acid] | 979 nM | 1000 nM |
| CC(C)CC(Nc1cc2ccccc2cn1)c1ccc(C(=O)NCCC(=O)O)cc1 (racemic) [Example 9, (+/−)-3-{4-[1-(isoquinolin-3-ylamino)-3-methyl-butyl]-benzoylamino}-propionic acid trifluoroacetate] | 531 nM | 450 nM |
| Cc1cc2ccccc2nc1NC(CC(C)C)c1ccc(C(=O)NCCC(=O)O)cc1 (racemic) [Example 11, (+/−)-3-{4-[3-methyl-1-(3-methyl-quinolin-2-ylamino)-butyl]-benzoylamino}-propionic acid] | 101 nM | 91 nM |
| CC(C)CC(Nc1ncc2ccccc2n1)c1ccc(C(=O)NCCC(=O)O)cc1 (racemic) [Example 14, (+/−)-3-{4-[3-methyl-1-(quinazolin-2-ylamino)-butyl]-benzoylamino}-propionic acid] |  | 3100 nM |
| Cc1cc2ccccc2nc1NC(c1ccc(C(=O)NCCC(=O)O)cc1)C1CC(C)(C)C1 (racemic) [Example 19, (+/−)-3-{4-[(3,3-dimethyl-cyclobutyl)-(3-methyl-quinolin-2-ylamino)-methyl]-benzoylamino}-propionic acid] | 74 nM | 64 nM |
| Cc1cc2cc(F)ccc2nc1NC(c1ccc(C(=O)NCCC(=O)O)cc1)C1CC(C)(C)C1 (racemic) [Example 20, (+/−)-3-{4-[(3,3-dimethyl-cyclobutyl)-(6-fluoro-3-methyl-quinolin-2-ylamino)-methyl]-benzoylamino}-propionic acid] | 39 nM | 64 nM |
| Cc1cc2ccc(F)cc2nc1NC(c1ccc(C(=O)NCCC(=O)O)cc1)C1CC(C)(C)C1 (racemic) [Example 21, (+/−)-3-{4-[(3,3-dimethyl-cyclobutyl)-(7-fluoro-3-methyl-quinolin-2-ylamino)-methyl]-benzoylamino}-propionic acid] | 133 nM | 160 nM |
| CC1(C)CC(C(Nc2cnc3cc(F)ccc3c2)c2ccc(C(=O)NCCC(=O)O)cc2)C1 (racemic) [Example 22, (+/−)3-(4-((3,3-dimethylcyclobutyl)(7-fluoroquinolin-3-ylamino)methyl)benzamido)propanoic acid] | 25 nM | 47 nM |
| CC1(C)CC(C(Nc2cnc3ccc(F)cc3c2)c2ccc(C(=O)NCCC(=O)O)cc2)C1 (racemic) [Example 23, (+/−)3-(4-((3,3-dimethylcyclobutyl)(6-fluoroquinolin-3-ylamino)methyl)benzamido)propanoic acid] | 50 nM | 63 nM |
| O=C(O)CCNC(=O)c1ccc(C(CCC(F)(F)F)Nc2cnc3ccccc3c2)cc1 (racemic) [Example 29, (+/−)-3-(4-(4,4,4-trifluoro-1-(quinolin-3-ylamino)butyl)benzamido)propanoic acid] | 930 nM | 930 nM |
| Cc1cc2cc(F)ccc2nc1NC(c1ccc(C(=O)NCCC(=O)O)cc1)C1CC(C)(C)C1 (single isomer, unassigned; isomer 1) [Example 34, 3-{4-[(3,3-dimethyl-cyclobutyl)-(6-fluoro-3-methyl-quinolin-2-ylamino)-methyl]-benzoylamino}-propionic acid, isomer 1] |  | 1180 nM |
| Cc1cc2ccccc2nc1NC(c1ccc(C(=O)NCCC(=O)O)cc1)C1CC(C)(C)C1 (single isomer, unassigned; isomer 2) [Example 33, 3-{4-[(3,3-dimethyl-cyclobutyl)-(3-methyl-quinolin-2-ylamino)-methyl]-benzoylamino}-propionic acid, isomer 2] |  | 1820 nM |
| CC1(C)CC(C(Nc2cnc3ccccc3c2)c2ccc(C(=O)NCCC(=O)O)cc2)C1 (stereo not shown) [Example 24, 3-(4-((3,3-dimethylcyclobutyl)(quinolin-3-ylamino)methyl)benzamido)propanoic acid] |  | 140 nM |

Second part, the compound after the results:

| Ki (human glucagon receptor [1]) | Kb (human glucagon receptor [2]) | Structure (SMILES) |
| --- | --- | --- |
| 452 nM | 380 nM | CC(C)CC(Nc1ccc2ccccc2n1)c1ccc(C(=O)NCCC(=O)O)cc1 (racemic) [Example 5, (+/−)-3-{4-[3-methyl-1-(quinolin-2-ylamino)-butyl]-benzoylamino}-propionic acid] |
| 1860 nM | 620 nM | COc1cccc2ccc(NC(CC(C)C)c3ccc(C(=O)NCCC(=O)O)cc3)nc12 (racemic) [Example 6, (+/−)-3-{4-[1-(8-methoxy-quinolin-2-ylamino)-3-methyl-butyl]-benzoylamino}-propionic acid] |
| 198 nM | 220 nM | Cc1cc(NC(CC(C)C)c2ccc(C(=O)NCCC(=O)O)cc2)nc2ccccc12 (racemic) [Example 10, (+/−)-3-{4-[3-methyl-1-(4-methyl-quinolin-2-ylamino)-butyl]-benzoylamino}-propionic acid] |
| 242 nM | 310 nM | Cc1cc(NC(CC(C)C)c2ccc(C(=O)NCCC(=O)O)cc2)nc2cc(F)ccc12 (racemic) [Example 12, (+/−)-3-{4-[1-(7-fluoro-4-methyl-quinolin-2-ylamino)-3-methyl-butyl]-benzoylamino}-propionic acid] |
| 199 nM | 140 nM | CC(C)CC(Nc1ccc2cccc(Cl)c2n1)c1ccc(C(=O)NCCC(=O)O)cc1 (racemic) [Example 13, (+/−)-3-{4-[1-(8-chloro-quinolin-2-ylamino)-3-methyl-butyl]-benzoylamino}-propionic acid] |
| 479 nM | 1100 nM | CC(C)CC(Nc1ccc2ccc(C(F)(F)F)cc2n1)c1ccc(C(=O)NCCC(=O)O)cc1 (racemic) [Example 15, (+/−)3-(4-(3-methyl-1-(7-(trifluoromethyl)quinolin-2-ylamino)butyl)benzamido)propanoic acid] |
| 91 nM | 800 nM | CC(C)CC(Nc1ccc2cc(C(F)(F)F)ccc2n1)c1ccc(C(=O)NCCC(=O)O)cc1 (racemic) [Example 16, (+/−)3-(4-(3-methyl-1-(6-(trifluoromethyl)quinolin-2-ylamino)butyl)benzamido)propanoic acid] |
| 76 nM | 69 nM | Cc1cc2ccccc2nc1NC(CC(C)C)c1ccc(C(=O)NCCC(=O)O)cc1 (single isomer, unassigned; isomer 1) [Example 30, 3-(4-(3-methyl-1-((3-methylquinolin-2-yl)amino)butyl)benzamido)propanoic acid, Isomer 1] |
